Consider 104 compounds from PubChem BioAssay AID1996.

Converted amounts (≈) assume the structure as drawn.

One may read the kinetic solubility as solubility judged after dilution from a stock solution rather than from solid.

The conditions of the series: buffer; pH 7.4; 200.0 µM.
`O=C(NCCc1ccccc1)c1cccc(N2CCCC2=O)c1` had a kinetic solubility above 46.3 µg/mL. As for `Cc1[nH]c2c([N+](=O)[O-])cccc2c1C`, the kinetic solubility amounted to 1.2 µg/mL (≈ 6.31 µM). In the case of `COc1cc(N)c(Cl)cc1C(=O)OCC(=O)c1cccs1` it was 4.2 µg/mL (≈ 12.9 µM); in that of `COC(=O)Nc1ccc(S(=O)(=O)N2CCCC(C(=O)NCC3CCCO3)C2)cc1` (centres undefined), above 63.8 µg/mL. Take `CCCc1nnc(NC(=O)CS(=O)(=O)c2ccccc2)s1`: the solubility (kinetic) is above 48.8 µg/mL. In the case of `CCCCN=CC1=C(O)CC(c2ccccc2)CC1=O` (centres undefined) it was 34.9 µg/mL (≈ 129 µM).

The compound `Nc1nc(-c2cc(-c3ccccc3)no2)cs1` gave a kinetic solubility of 4.4 µg/mL (≈ 18.1 µM).

In turn, `CN(C)c1nc2c(c(=O)[nH]c(=O)n2C)n1CCCc1ccccc1` yielded a solubility (kinetic) above 49.1 µg/mL. In the case of `O=C(COC(=O)c1ccc(F)cc1F)c1ccc[nH]1` it was above 39.8 µg/mL; in that of `COc1ccc(/C=C/C(=O)NC(=S)Nc2ccccn2)cc1`, 1.8 µg/mL (≈ 5.74 µM); in that of `O=C(N/C(=C/c1ccco1)C(=O)N1CCOCC1)c1ccc([N+](=O)[O-])cc1`, above 55.7 µg/mL.

As to `Cc1ccn2c(=O)c(C(=O)O)cnc2c1`, the solubility (kinetic) was above 30.6 µg/mL. Then `CN1CCN(CC/C=C2/c3ccccc3Sc3ccc(S(=O)(=O)N(C)C)cc32)CC1`, with above 66.5 µg/mL; and `COc1ccc(NC(=O)CC2(CC(=O)O)CCCC2)cn1`, with above 43.9 µg/mL; and `COc1ccc(S(=O)(=O)N2CCOCC2)cc1NS(=O)(=O)c1ccc(F)c(F)c1`, with above 67.3 µg/mL. Take `Cc1cccc(NC(=O)Nc2ccc3c(c2)CCC3)c1`: the kinetic solubility is below 0.3 µg/mL. In the case of `CC1CCN(C(=O)CCNC(=O)c2ccccc2)CC1` it was 37.1 µg/mL (≈ 135 µM); in that of `Cc1cc(C)c(S(=O)(=O)c2ccccc2Cl)c(=O)[nH]1`, 42.2 µg/mL (≈ 142 µM). In turn, `O=[N+]([O-])c1ccc(CP(=O)(c2ccccc2)c2ccccc2)cc1` had a kinetic solubility of 8 µg/mL (≈ 23.7 µM). `Cc1cc(-c2ccccc2)n2ncnc2n1`: the kinetic solubility is above 31.5 µg/mL. Then `COc1ccccc1NC(=O)C1CC(C)OC1=O` (centres undefined), with above 37.4 µg/mL.

Take `CNC(=O)CO/N=C/c1ccc(N(C)C)cc1`: the kinetic solubility is above 35.3 µg/mL. Then `Cc1c(C(=O)N2CCOCC2)oc2ccccc12`, with above 36.8 µg/mL. Compound `Cc1cc(C)cc(N2C(=O)CN(Cc3ccccc3)C2=S)c1` registered a kinetic solubility of 4.1 µg/mL (≈ 13.2 µM).

The compound `CCOc1ccc(NC(=O)CN2C(=O)CSC(C)C2=O)cc1` (centres undefined) came in with a solubility (kinetic) above 48.4 µg/mL. Then `CSCC(=O)NCC1(N(C)Cc2ccccc2)Cc2ccccc2C1`, with above 53.2 µg/mL.

`CCOC(=O)/C(N=Nc1ccc(C(=O)O)cc1[N+](=O)[O-])=C(\C)O` came in with a kinetic solubility above 48.5 µg/mL. As to `CC(=O)c1ccc(S(=O)(=O)N2CCN(CCOc3ccccc3)CC2)cc1`, the kinetic solubility came out at 53.6 µg/mL (≈ 138 µM). In the case of `CS(=O)(=O)N1CCCC(C(=O)c2cccc(Cl)c2)C1` (centres undefined) it was above 45.3 µg/mL. Then `CC(NC(=O)C1CC1)c1ccc(-c2ccccc2)cc1` (centres undefined), with 1.5 µg/mL (≈ 5.65 µM).

As to `COc1ccc2c(c1)CCCC21NC(=O)N(CC(=O)NCc2cccs2)C1=O` (centres undefined), the kinetic solubility is above 59.9 µg/mL. The compound `N#C/C(=C/Nc1ccccc1C(=O)O)C(N)=O` had a solubility (kinetic) above 34.7 µg/mL. In the case of `Cc1onc(-c2ccccc2)c1CNC(=O)Nc1ccccc1` it was above 46.1 µg/mL; in that of `CCc1ccc(NC(=O)NCCN2CCCCC2)cc1`, above 41.3 µg/mL. In the case of `Cc1ccsc1CNC12CC3CC(CC(C3)C1)C2.Cl` it was 38.1 µg/mL; in that of `O=C(NCCc1ccccc1)c1ccc(NC(=O)c2cccnc2)cc1`, 4.3 µg/mL (≈ 12.4 µM); in that of `Cc1ccc2c(c1)N(CC(=O)N1CCCC(C)C1)C(=O)CO2` (centres undefined), 45.3 µg/mL (≈ 150 µM). Turning to `O=C(COc1ccccc1)NS(=O)(=O)c1ccccc1`, the solubility (kinetic) stood at 38.1 µg/mL (≈ 131 µM).

`CC(NC(=O)/C(C#N)=C/c1ccc(C(=O)O)cc1)c1ccccc1` (centres undefined) registered a kinetic solubility above 48.1 µg/mL.

Regarding `Cc1c(C(=O)c2ccc(F)cc2F)c2ccccn2c1CCC#N`, the solubility (kinetic) came to 44.4 µg/mL (≈ 137 µM). In the case of `CCOc1ccc2oc(C(=O)N3CC(C)OC(C)C3)c(C)c2c1` (centres undefined) it was 41.6 µg/mL (≈ 131 µM); in that of `COc1ccc(CCNC(=O)COC(=O)c2ncc(Cl)c(Cl)c2Cl)cc1OC`, above 67.2 µg/mL. Take `CC1CCCCN1C(=O)CCS(=O)(=O)Cc1ccccc1` (centres undefined): the solubility (kinetic) amounted to 35 µg/mL (≈ 113 µM).

With `CN=C(Nc1ccc(C(=O)OC)s1)c1ccccc1`, the solubility (kinetic) worked out at 29.6 µg/mL (≈ 108 µM). `COC(=O)C(N)Cc1ccc(O)c(O)c1.Cl` (centres undefined) had a kinetic solubility of 24.4 µg/mL.

`CC(C)c1ccc(/C=C/C(=O)N2CCOCC2)cc1` registered a solubility (kinetic) of 36.3 µg/mL (≈ 140 µM). Then `C=CCc1ccccc1OCC(O)CN1CCOCC1` (centres undefined), with above 41.6 µg/mL. In turn, `Cc1nn(C)cc1S(=O)(=O)Nc1ccc(C(F)(F)F)cc1` returned a kinetic solubility above 47.9 µg/mL. `O=C(Cc1ccccc1)c1c[nH]c(C(=O)C(Cl)(Cl)Cl)c1` yielded a kinetic solubility of 28.1 µg/mL (≈ 85 µM). Turning to `CN1C(=O)C(=Cc2cn(CC#N)c3ccccc23)C(=O)N(C)C1=O`, the kinetic solubility stood at 8.1 µg/mL (≈ 25.1 µM). On to `Cc1cc(=O)n(-c2ccc(Cl)cc2)c(=O)[nH]1`, for which the solubility (kinetic) was above 35.5 µg/mL. Compound `c1ccc(CCN2CCC3(CC2)OCCO3)cc1` came in with a kinetic solubility of 29.2 µg/mL (≈ 118 µM). In the case of `COc1cc(-c2cc(C(=O)OCC(=O)NC3CC3)c3ccccc3n2)cc(OC)c1OC` it was 3.7 µg/mL (≈ 8.48 µM); in that of `COc1cccc(CN(C)C(=S)Nc2cccc(C)c2)c1`, 40.4 µg/mL (≈ 134 µM); in that of `CCn1cnc2c1c(=O)[nH]c(=O)n2Cc1ccccc1`, 34.6 µg/mL (≈ 128 µM). `Cc1ccc(CNC(=O)c2nccnc2C(=O)O)cc1` gave a kinetic solubility above 40.7 µg/mL.

`COc1ccccc1OCCn1ccnc1` came in with a solubility (kinetic) above 32.7 µg/mL.

In turn, `COC(=O)c1c(C)[nH]c(C(=O)C(C)OC(=O)c2ccco2)c1C` (centres undefined) displayed a kinetic solubility of 4.5 µg/mL (≈ 14.1 µM).

`COc1ccccc1NC(=O)NCC1CC1(Cl)Cl` (centres undefined): the kinetic solubility was found to be 42.1 µg/mL (≈ 146 µM). `CC(=O)Oc1ccc(C(=O)N2c3ccccc3NC(=O)C2C)cc1` (centres undefined): the solubility (kinetic) was above 48.7 µg/mL. Turning to `N#Cc1c(N2CCCC2)nsc1-c1ccccc1`, the kinetic solubility was 0.4 µg/mL (≈ 1.57 µM). Then `CCn1cc(C(=O)NCCc2ccc(Cl)cc2)c(=O)c2ccc(C)nc21`, with 5.1 µg/mL (≈ 13.8 µM); and `NS(=O)(=O)c1ccc(CCNC(=S)NC2CCCCC2)cc1`, with above 51.2 µg/mL; and `CC(=O)O/C(=C\c1cn(C(C)=O)c2ccccc12)C(=O)O`, with above 43.1 µg/mL.

`C=CCN=C1CCCc2c1[nH]c1ccc(C)cc21` gave a kinetic solubility of 10.3 µg/mL (≈ 43.2 µM). In the case of `CC(C)(ONC(=O)Nc1ccccc1Cl)C(=O)O` it was above 40.9 µg/mL; in that of `COc1cccc(C(=O)C(C#N)=C(SC)SC)c1`, 33.6 µg/mL (≈ 120 µM); in that of `O=C(COC(=O)c1cccc(Cl)c1)Nc1ccc2[nH]c(=O)[nH]c2c1`, 0.8 µg/mL (≈ 2.31 µM).

Regarding `O=C(CCn1ccnc1)Nc1nc2ccccc2[nH]1`, the kinetic solubility was above 38.3 µg/mL.

`Cc1ccc(S(=O)(=O)CC(=O)NC(C)c2ccccc2)cc1` (centres undefined): the kinetic solubility stood at 42.4 µg/mL (≈ 134 µM). Then `Cc1ccc(S(=O)(=O)N2CCN(c3ccccc3)CC2)cc1C`, with below 0.4 µg/mL; and `Cc1cc2oc(=O)c(CC(=O)NCCCO)c(C)c2c2occ(C(C)(C)C)c12`, with 28 µg/mL (≈ 72.6 µM). Consider `Cc1ccccc1/C=C/C(=O)N1CCOCC1`, for which the solubility (kinetic) was above 34.7 µg/mL. In the case of `COc1cc2ccccc2cc1C(=O)N1CCCC(C(F)(F)F)C1` (centres undefined) it was above 50.6 µg/mL. In the case of `COC(=O)Nc1nc2ccc(Sc3ccccc3)cc2[nH]1` it was 0.9 µg/mL (≈ 3.01 µM). For the compound `CCCCC(=O)N(Cc1ccc(F)cc1)C1CCS(=O)(=O)C1` (centres undefined), the solubility (kinetic) was 46.9 µg/mL (≈ 143 µM).

In turn, `CCN1CCC(O)(C#Cc2ccccc2)CC1` had a kinetic solubility of 33.5 µg/mL (≈ 146 µM). `CC(=O)NC1C(O)OC(CO)C(O)C1O` (centres undefined): the solubility (kinetic) was above 33.2 µg/mL. Regarding `Cc1ccccc1-c1nnc(SC(C)C(=O)NC2CCCC2)o1` (centres undefined), the kinetic solubility was above 49.7 µg/mL. Then `O=C(c1ccc([N+](=O)[O-])cc1[N+](=O)[O-])n1cnc2ccccc21`, with 22.9 µg/mL (≈ 73.3 µM). In the case of `COc1ccc(/C=C/C(=O)NCCSCc2ccco2)cc1OC` it was 41.9 µg/mL (≈ 121 µM); in that of `O=C(COC(=O)C1CCC1)NCCc1ccc(Cl)cc1Cl`, above 49.5 µg/mL. In the case of `Cc1ccc(C(=O)C2CCN(CC(=O)NC3CCCC3)CC2)cc1`, the kinetic solubility was above 49.3 µg/mL. The compound `Cc1c(Cl)cccc1NC(=O)CCN1CCC(C(N)=O)CC1` had a kinetic solubility above 48.6 µg/mL. `NC(CO)(CO)COCc1ccccc1`: the kinetic solubility is above 31.7 µg/mL. In the case of `CCOc1ccc(C2NC(=O)Cc3cc(OC)c(OC)cc32)cc1` (centres undefined) it was above 49.1 µg/mL; in that of `Cc1ccc(NC(=O)CCCc2nc3ccccc3s2)c(O)c1`, above 49 µg/mL; in that of `COC(=O)c1cccc(NC(=O)NC(=O)c2ccccc2Cl)c1`, 0.6 µg/mL (≈ 1.8 µM). Then `C=C1c2cc(C)c(C)cc2NC(=O)N1c1ccccc1`, with 24.4 µg/mL (≈ 92.3 µM); and `Cc1cccc(C(=O)OCC(=O)NCc2ccc3c(c2)OCO3)c1C`, with 14.5 µg/mL (≈ 42.5 µM); and `Cc1cnc(C(=O)OCC(=O)Nc2ccccc2[N+](=O)[O-])cn1`, with above 47.4 µg/mL.

`Cc1cc(C(=O)OC(C)C(=O)NC2CCCCC2C)c(C)o1` (centres undefined) gave a solubility (kinetic) of 5.5 µg/mL (≈ 17.9 µM). The compound `COC(=O)Nc1nn(-c2ccc(OC)cc2)c(=O)c(C#N)c1C` registered a solubility (kinetic) above 47.1 µg/mL. With `CCNC(=O)CCc1nc(-c2ccc(C)cc2)no1`, the solubility (kinetic) is above 38.9 µg/mL. On to `Cc1ccc(NC(=O)CC(=O)Nc2ccc(C)cc2C)c(C)c1`, for which the solubility (kinetic) amounted to 6.3 µg/mL (≈ 20.3 µM). In the case of `Cc1csc(NC(=O)c2ccc3nc[nH]c3c2)n1` it was above 38.7 µg/mL; in that of `O=C(Nc1ccc(N2CCOCC2)cc1)c1nc2ccccc2s1`, below 0.2 µg/mL; in that of `O=C(O)CCc1nc2ccccc2c(=O)[nH]1`, above 32.7 µg/mL. `CC(=O)Nc1ccc(N2C(=O)CSC2c2ccccc2)cc1` (centres undefined) yielded a kinetic solubility above 46.9 µg/mL. Regarding `OCCOCCN1CCN(C2=Nc3ccccc3Sc3ccccc32)CC1`, the kinetic solubility is 49.4 µg/mL (≈ 129 µM). On to `O=C(NCCC1CC1(Cl)Cl)c1ccc([N+](=O)[O-])cc1` (centres undefined), for which the kinetic solubility was 36.9 µg/mL (≈ 122 µM). `Cc1ccc(Sc2cc(C)nc(-c3ccccn3)n2)cc1` gave a kinetic solubility of 36.8 µg/mL (≈ 125 µM). Compound `CSc1cccc(NC(N)=S)c1` displayed a solubility (kinetic) of 29.2 µg/mL (≈ 147 µM). `CN(C)/C=C(\C=O)c1onc(-c2ccccc2Cl)c1C#N` returned a solubility (kinetic) of 44.8 µg/mL (≈ 148 µM).
